Source: US20240262795A1, “PYRAZINE COMPOUNDS AS INHIBITORS OF FLT3” (Biomea Fusion, Inc., priority 2021, published 2024)

Experiments:
MV-4-11 = assay: Proliferation inhibition, CellTiter-Glo, MV-4-11; format: cell-based, human; details: Homo sapiens, MV4-11, 96 h; MV-4:11 cells, IC50 (4 days), CellTiter-Glo; read-out: MV-4:11 IC50
How it was run: (§1)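 About 10,000 cells per well in RPMI-1640 with 10% FBS. Compounds added 2 h after seeding at eight concentrations in duplicate (0.2% DMSO as 100% proliferation), then incubated ~96 h at 37° C, 5% CO2. ATP measured by CellTiter-Glo luminescence; IC50 from four-parameter logistic fit.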

K-562 = assay: Proliferation inhibition, CellTiter-Glo, K-562; format: cell-based, human; details: Homo sapiens, K562, 96 h; K-562 cells, IC50 (4 days), CellTiter-Glo; read-out: K-562 IC50
How it was run: as §1

MOLM-13 = assay: Proliferation inhibition, CellTiter-Glo, MOLM-13; format: cell-based, human; details: Homo sapiens, 96 h; MOLM-13 cells, IC50 (4 days), CellTiter-Glo; read-out: MOLM-13 IC50
How it was run: as §1

WT FLT3 = molecular target: T1, WT FLT3 (Homo sapiens, UniProt P36888); assay: WT FLT3 Lance Ultra TR-FRET kinase assay; format: biochemical
T1 construct: purchased Invitrogen PR4666C
T1 sequence (P36888 564-993 limits assumed): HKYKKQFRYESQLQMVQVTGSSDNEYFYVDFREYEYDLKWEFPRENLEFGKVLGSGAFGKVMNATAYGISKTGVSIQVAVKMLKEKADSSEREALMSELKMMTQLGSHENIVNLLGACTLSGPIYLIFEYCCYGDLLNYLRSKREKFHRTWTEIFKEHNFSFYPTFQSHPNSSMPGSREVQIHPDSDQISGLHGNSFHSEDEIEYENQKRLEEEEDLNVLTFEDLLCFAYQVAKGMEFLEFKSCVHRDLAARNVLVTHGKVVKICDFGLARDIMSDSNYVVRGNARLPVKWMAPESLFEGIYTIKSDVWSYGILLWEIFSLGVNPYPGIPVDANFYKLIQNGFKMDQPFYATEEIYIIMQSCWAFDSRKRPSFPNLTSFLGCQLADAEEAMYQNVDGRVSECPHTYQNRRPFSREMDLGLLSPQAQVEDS
From the text: (§2) High throughput 384-well Lance Ultra TR-FRET based kinase assays were established for the WT FLT3 and FLT3-ITD enzymes and employed a ULight-labeled peptide […] and FLT3 proteins labelled with Eu-conjugated antibody […] (WuXi Aptec). The principle of TR-FRET is based on transfer of energy between a donor and acceptor fluorophore that results when the fluorophores are within close proximity (˜100 Å) of each other. Recombinant WT FLT3 (#PR4666C, M.W. 48.6 kDa) was purchased from Invitrogen and FLT3-ITD (FLT3-ITD-W51, #F-12-12CG-10, M.W. 76 kDa) was purchased from Signalchem. Optimal assay conditions for the WT FLT3 enzyme assay were as follows: 0.5 nM FLT3 protein, 50 nM ULight-JAK-1 (Tyr1023) substrate peptide (PerkinElmer #TRF0121), 100 μM ATP, 60 min reaction time. Optimal assay conditions for the FLT3-ITD enzyme assay were as follows: 0.0625 nM FLT3-ITD protein, 50 nM ULight-JAK-1 (Tyr1023) substrate peptide, 50 μM ATP, 90 min reaction time. Briefly, 11 dose 3× serial dilutions were prepared for the test compounds and the reference compound and 100 nanoliters transferred to appropriate wells of 384-well assay plates. Five microliters of 2× enzyme/peptide were added into assay wells, assay plates centrifuged at 1000 rpm for about 30 seconds, sealed with sealing film and incubated for 30 min at 23° C. Assay buffer comprised 50 mM HEPES (pH 7.5), 1 mM EDTA, 0.01% Brij-35, 10 mM MgCl2 and 2 mM DTT. Next 5 μl of a 2× ATP mixture were added into the assay wells and the plates centrifuged at 1000 rpm about 30 seconds, sealed with sealing film and incubated for 23° C. for appropriate duration. Following assay incubation (30 min for WT FLT3 and 60 min for FLT3-ITD) 10 μl 2× Detection Mixture (Eu-W1024 Anti-phosphotyrosine (PT66) 2 nM and EDTA 10 mM) was added to assay wells, assay plates centrifuge at 1000 rpm about 1 minutes, sealed with sealing film and incubated at 23° C. for 60 minutes. Assay plates were read on a Perkin Elmer Envision reader at two wavelengths (665/615) and the ratio of […] calculated.
(§3) Data was expressed as % of inhibition relative to the vehicle control and calculated as follows:
(§4) Results were analyzed by XLFIT5 as % inhibition vs. log [compound concentration] and IC50 values were calculated by non-linear regression using four parameter-logistic equation. Fit=(A+((B−A)/(1+((C/x)^D)))). Res=(y−fit).

FLT3-ITD = molecular target: T2, FLT3-ITD (Homo sapiens, UniProt P36888, DUP595-601); assay: FLT3-ITD Lance Ultra TR-FRET kinase assay; format: biochemical
T2 construct: purchased Signalchem F-12-12CG-10
T2 sequence (P36888 with tags, fused parts or gaps DUP595-601 limits assumed): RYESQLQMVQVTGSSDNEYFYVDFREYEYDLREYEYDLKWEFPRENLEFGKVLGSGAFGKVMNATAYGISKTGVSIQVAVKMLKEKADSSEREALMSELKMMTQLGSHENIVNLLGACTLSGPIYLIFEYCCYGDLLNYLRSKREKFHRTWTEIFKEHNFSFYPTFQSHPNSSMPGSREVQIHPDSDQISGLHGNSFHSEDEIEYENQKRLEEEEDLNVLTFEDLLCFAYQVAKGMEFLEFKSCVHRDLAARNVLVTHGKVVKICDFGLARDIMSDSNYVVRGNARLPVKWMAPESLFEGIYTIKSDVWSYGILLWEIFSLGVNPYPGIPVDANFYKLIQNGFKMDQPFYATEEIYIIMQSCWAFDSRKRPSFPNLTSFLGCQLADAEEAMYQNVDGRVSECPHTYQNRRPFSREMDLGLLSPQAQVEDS
From the text: as §2, §3, §4

Row | Structure (SMILES) | IC50 (MV-4-11) [nM] | IC50 (K-562) [nM] | IC50 (MOLM-13) [nM] | IC50 (WT FLT3) [nM] | IC50 (FLT3-ITD) [nM]
1 | CCc1nc(C(N)=O)c(Nc2cccc(CCNC(=O)[C@H](C)N(C)C(=O)/C=C/CN(C)C)c2)nc1N(C)C [Compound 137, (S,E)-5-(dimethylamino)-3-((3-(2-(2-(4-(dimethylamino)-N-methylbut-2-enamido)propanamido)ethyl)phenyl)amino)-6-ethylpyrazine-2-carboxamide] | < 1 | > 500 | < 1 | 0.501 to 1 | 0.201 to 0.5
2 | CCc1nc(C(N)=O)c(Nc2cccc(CCNC(=O)[C@H](C)N(C)C(=O)/C=C/CN(C)C)c2)nc1C1CC1 [Compound 138, (S,E)-5-cyclopropyl-3-((3-(2-(2-(4-(dimethylamino)-N-methylbut-2-enamido)propanamido)ethyl)phenyl)amino)-6-ethylpyrazine-2-carboxamide] | < 1 | > 500 | 1 to 10 | 0.201 to 0.5 | 0.201 to 0.5
3 | CCc1nc(C(N)=O)c(Nc2cc(CCNC(=O)[C@H](C)N(C)C(=O)/C=C/CN(C)C)cc(OC)c2)nc1N(C)C [Compound 143] | < 1 | > 500 | < 1 | 0.101 to 0.2 | 0.101 to 0.2
4 | CCc1nc(C(N)=O)c(Nc2cc(CCNC(=O)[C@H](C)N(C)C(=O)/C=C/CN(C)C)cc(OC)c2)nc1C1CC1 [Compound 144, (S,E)-5-cyclopropyl-3-((3-(2-(2-(4-(dimethylamino)-N-methylbut-2-enamido)propanamido)ethyl)-5-methoxyphenyl)amino)-6-ethylpyrazine-2-carboxamide] | < 1 | > 500 | < 1 | 0.201 to 0.5 | 0.201 to 0.5
5 | CCc1nc(C(N)=O)c(Nc2cccc(CCNC(=O)[C@H](C)N(C)C(=O)/C=C/CN3CCC3)c2)nc1N(C)C [Compound 156, (S,E)-3-((3-(2-(2-(4-(azetidin-1-yl)-N-methylbut-2-enamido)propanamido)ethyl)phenyl)amino)-5-(dimethylamino)-6-ethylpyrazine-2-carboxamide] | < 1 | > 500 | < 1 | 0.201 to 0.5 | 0.201 to 0.5
6 | CCc1nc(C(N)=O)c(Nc2cc(F)cc(CCNC(=O)[C@H](C)N(C)C(=O)/C=C/CN(C)C)c2)nc1N(C)C [Compound 158, (S,E)-5-(dimethylamino)-3-((3-(2-(2-(4-(dimethylamino)-N-methylbut-2-enamido)propanamido)ethyl)-5-fluorophenyl)amino)-6-ethylpyrazine-2-carboxamide] | < 1 | > 500 | < 1 | 0.101 to 0.2 | 0.101 to 0.2
7 | CCc1nc(C(N)=O)c(Nc2cc(F)cc(CCNC(=O)[C@H](C)N(C)C(=O)/C=C/CN(C)C)c2)nc1C1CC1 [Compound 159, (S,E)-5-cyclopropyl-3-((3-(2-(2-(4-(dimethylamino)-N-methylbut-2-enamido)propanamido)ethyl)-5-fluorophenyl)amino)-6-ethylpyrazine-2-carboxamide] | < 1 | > 500 | 1 to 10 | 0.501 to 1 | 0.201 to 0.5
8 | CCc1nc(C(N)=O)c(Nc2cccc(CCNC(=O)[C@H](C)N(C)C(=O)C#CCN(C)C)c2)nc1N(C)C [Compound 203, (S)-5-(dimethylamino)-3-((3-(2-(2-(4-(dimethylamino)-N-methylbut-2-ynamido)propanamido)ethyl)phenyl)amino)-6-ethylpyrazine-2-carboxamide] | < 1 | > 500 | 1 to 10 | 0.501 to 1 | 0.201 to 0.5
9 | C=CC(=O)N(C)[C@@H](C)C(=O)NCCc1cccc(Nc2nc(N(C)C)c(CC)nc2C(N)=O)c1 [Compound 213, (S)-5-(dimethylamino)-6-ethyl-3-((3-(2-(2-(N-methylacrylamido)propanamido)ethyl)phenyl)amino)pyrazine-2-carboxamide] | < 1 | > 500 | 1 to 10 | 0.501 to 1 | 0.101 to 0.2

Results, then the molecule that gave them:

Row | IC50 (MV-4-11) [nM] | IC50 (K-562) [nM] | IC50 (MOLM-13) [nM] | IC50 (WT FLT3) [nM] | IC50 (FLT3-ITD) [nM] | Structure (SMILES)
10 | 1 to 10 |  | 1 to 10 | 0.501 to 1 | > 1 | CCc1nc(C(N)=O)c(Nc2cncc(CCNC(=O)[C@H](C)N(C)C(=O)/C=C/CN(C)C)c2)nc1C1CC1 [Compound 306, (S, E)-5-cyclopropyl-3-((5-(2-(2-(4-(dimethylamino)-N-methylbut-2-enamido)propanamido)ethyl)pyridin-3-yl)amino)-6-ethylpyrazine-2-carboxamide]
11 | > 500 | > 500 | > 500 |  |  | CCc1nc(C(N)=O)c(Nc2cccc([C@@H](C)CNC(=O)[C@H](C)N(C)C(=O)/C=C/CN(C)C)c2)nc1C [Compound 326, 3-((3-((R)-1-((S)-2-((E)-4-(dimethylamino)-N-methylbut-2-enamido)propanamido)propan-2-yl)phenyl)amino)-6-ethyl-5-methylpyrazine-2-carboxamide]
12 | 10 to 100 | > 500 | > 500 |  |  | C=CC(=O)N(C)CC(=O)NC[C@H](C)c1cccc(Nc2nc(CC(C)C)c(CC)nc2C(N)=O)c1 [Compound 512, (R)-6-ethyl-5-isobutyl-3-((3-(1-(2-(N-methylacrylamido)acetamido)propan-2-yl)phenyl)amino) pyrazine-2-carboxamide]
13 | < 1 | > 500 | 1 to 10 |  |  | CCc1nc(C(N)=O)c(Nc2ccnc(CCNC(=O)CN(C)C(=O)/C=C/CN3CCC3)c2)nc1CC(C)C [Compound 604, (E)-3-((2-(2-(2-(4-(azetidin-1-yl)-N-methylbut-2-enamido)acetamido)ethyl)pyridin-4-yl)amino)-6-ethyl-5-isobutylpyrazine-2-carboxamide]
14 | 1 to 10 | > 500 | 1 to 10 |  |  | CCc1nc(C(N)=O)c(Nc2ccc(F)c(CCNC(=O)CN(C)C(=O)/C=C/CN3CCC3)c2)nc1C1CC1 [Compound 607, (E)-3-((3-(2-(2-(4-(azetidin-1-yl)-N-methylbut-2-enamido)acetamido)ethyl)-4-fluorophenyl)amino)-5-cyclopropyl-6-ethylpyrazine-2-carboxamide]
